Patent US8486966B2, “9-(pyrazol-3-yl)-9H-purine-2-amine and 3-(pyrazol-3-yl) -3H-imidazo[4,5-B] pyridin-5-amine derivatives and their use for the treatment of cancer” (Astrazeneca AB, priority 2007, dated 2013)

Columns and labels:
human Trk A kinase = human Trk A kinase (Homo sapiens (Human), UniProt P04629); assay: Trk A kinase Alphascreen assay; format: biochemical; details: 0.838 ng/ml Trk A, 70 μM ATP, 20 minutes, room temperature; read-out: Trk inhibitory activity IC50
Method: Trk A kinase activity was determined by measuring the kinase's ability to phosphorylate synthetic tyrosine residues within a generic polypeptide substrate using an Amplified Luminescent Proximity Assay (Alphascreen) technology (PerkinElmer, 549 Albany Street, Boston, Mass.).
To measure Trk A kinase activity, the intracellular domain of a HIS-tagged human Trk A kinase (amino acids 442-796 of Trk A, Swiss-Prot Primary Accession Number P04629) may be expressed in SF9 cells and purified using standard nickel column chromatography. After incubation of the kinase with a biotinylated substrate and adenosine triphosphate (ATP) for 20 minutes at room temperature, the kinase reaction may be stopped by the addition of 30 mM ethylenediaminetetraacetic acid (EDTA). The reaction may be performed in 384 well microtitre plates and the reaction products may be detected with the addition of strepavidin coated Donor Beads and phosphotyrosine-specific antibodies coated Acceptor Beads using the EnVision Multilabel Plate Reader after an overnight incubation at room temperature.

human JAK2 = human JAK2 (Homo sapiens (Human), UniProt O60674); assay: JAK2 kinase Alphascreen assay; format: biochemical; details: 150 pM JAK2 enzyme, 15 μM ATP, 60 minutes, room temperature; read-out: JAK inhibitory activity IC50
Method: JAK2 kinase activity was determined by measuring the kinase's ability to phosphorylate synthetic tyrosine residues within a generic polypeptide substrate using an Amplified Luminescent Proximity Assay (Alphascreen) technology (PerkinElmer, 549 Albany Street, Boston, Mass.).
To measure JAK2 kinase activity, a commercially available purified enzyme may be used. The enzyme may be a C-terminal His6-tagged, recombinant, human JAK2, amino acids 808-end, (Genbank Accession number NM 004972) expressed by baculovirus in Sf21 cells (Upstate Biotechnology MA). After incubation of the kinase with a biotinylated substrate and adenosine triphosphate (ATP) for 60 minutes at room temperature, the kinase reaction may be stopped by the addition of 30 mM ethylenediaminetetraacetic acid (EDTA). The reaction may be performed in 384 well microtitre plates and the reaction products may be detected with the addition of streptavidin coated Donor Beads and phosphotyrosine-specific antibodies coated Acceptor Beads using the EnVision Multilabel Plate Reader after an overnight incubation at room temperature.

Chain of human Trk A kinase (P04629 442-796): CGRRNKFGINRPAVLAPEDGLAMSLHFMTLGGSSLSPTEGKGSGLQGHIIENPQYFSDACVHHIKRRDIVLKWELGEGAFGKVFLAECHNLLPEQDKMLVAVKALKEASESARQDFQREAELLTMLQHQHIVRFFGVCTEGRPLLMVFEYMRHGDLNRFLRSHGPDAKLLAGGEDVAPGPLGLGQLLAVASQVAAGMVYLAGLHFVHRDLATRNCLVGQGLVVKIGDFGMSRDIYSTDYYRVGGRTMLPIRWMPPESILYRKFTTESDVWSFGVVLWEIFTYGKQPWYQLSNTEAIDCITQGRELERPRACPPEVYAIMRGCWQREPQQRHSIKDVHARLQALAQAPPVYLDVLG
Chain of human JAK2 (O60674 808-1132 limits assumed): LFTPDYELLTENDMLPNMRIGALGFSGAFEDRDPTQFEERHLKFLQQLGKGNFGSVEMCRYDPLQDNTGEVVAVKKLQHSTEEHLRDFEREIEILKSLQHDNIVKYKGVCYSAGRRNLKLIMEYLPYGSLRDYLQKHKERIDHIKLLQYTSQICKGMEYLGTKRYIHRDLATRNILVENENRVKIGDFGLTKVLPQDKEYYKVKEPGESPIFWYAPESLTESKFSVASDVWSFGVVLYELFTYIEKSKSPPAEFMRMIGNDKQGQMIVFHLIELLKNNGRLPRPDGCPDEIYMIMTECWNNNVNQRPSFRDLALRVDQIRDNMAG

| Structure (SMILES) | IC50 (human Trk A kinase) | IC50 (human JAK2) |
| --- | --- | --- |
| CC(C)Oc1cc(-n2cnc3ccc(N[C@@H](C)c4ccc(F)cn4)nc32)n[nH]1 [Example 1, N-[(1S)-1-(5-fluoropyridin-2-yl)ethyl]-3-(5-isopropoxy-1H-pyrazol-3-yl)-3H-imidazo[4,5-b]pyridin-5-amine] | 3 nM | – |
| C[C@H](Nc1ccc2ncn(-c3cc(C4CC4)[nH]n3)c2n1)c1ccc(F)cn1 [Example 2, 3-(5-Cyclopropyl-1H-pyrazol-3-yl)-N-[(1S)-1-(5-fluoropyridin-2-yl)ethyl]-3H-imidazo[4,5-b]pyridin-5-amine] | 3 nM | – |
| C[C@H](Nc1ncc2ncn(-c3cc(C4CC4)[nH]n3)c2n1)c1ncc(F)cn1 [Example 4, 9-(5-Cyclopropyl-1H-pyrazol-3-yl)-N-[(1S)-1-(5-fluoropyrimidin-2-yl)ethyl]-9H-purin-2-amine] | 12 nM | – |
| C[C@H](Nc1ncc2ncn(-c3cc(C4CC4)[nH]n3)c2n1)c1ccc(F)cn1 [Example 5, 9-(5-Cyclopropyl-1H-pyrazol-3-yl)-N-[(1S)-1-(5-fluoropyridin-2-yl)ethyl]-9H-purin-2-amine] | 5 nM | – |
| CC(C)Oc1cc(-n2cnc3ccc(N[C@@H](C)c4ncc(F)cn4)nc32)n[nH]1 [Example 6, N-[(1S)-1-(5-Fluoropyrimidin-2-yl)ethyl]-3-(5-isopropoxy-1H-pyrazol-3-yl)-3H-imidazo[4,5-b]pyridin-5-amine] | 3 nM | – |
| CC(C)Oc1cc(-n2cnc3ccc(N[C@@H](CO)c4ccc(F)cn4)nc32)n[nH]1 [Example 7, (2R)-2-(5-Fluoropyridin-2-yl)-2-{[3-(5-isopropoxy-1H-pyrazol-3-yl)-3H-imidazo[4,5-b]pyridin-5-yl]amino}ethanol] | 3 nM | – |
| CCOc1cc(-n2cnc3ccc(N[C@@H](CO)c4ccc(F)cn4)nc32)n[nH]1 [Example 8, (2R)-2-{[3-(5-Ethoxy-1H-pyrazol-3-yl)-3H-imidazo[4,5-b]pyridin-5-yl]amino}-2-(5-fluoropyridin-2-yl)ethanol] | 3 nM | – |
| CCOc1cc(-n2cnc3ccc(N[C@@H](C)c4ncc(F)cn4)nc32)n[nH]1 [Example 9, 3-(5-Ethoxy-1H-pyrazol-3-yl)-N-[(1S)-1-(5-fluoropyrimidin-2-yl)ethyl]-3H-imidazo[4,5-b]pyridin-5-amine] | 3 nM | – |
| CCOc1cc(-n2cnc3ccc(N[C@@H](C)c4ccc(F)cn4)nc32)n[nH]1 [Example 10, 3-(5-Ethoxy-1H-pyrazol-3-yl)-N-[(1S)-1-(5-fluoropyridin-2-yl)ethyl]-3H-imidazo[4,5-b]pyridin-5-amine] | 3 nM | – |
| CC(C)Oc1cc(-n2cnc3cnc(N[C@@H](C)c4ccc(F)cn4)nc32)n[nH]1 [Example 11, N-[(1S)-1-(5-Fluoropyridin-2-yl)ethyl]-9-(5-isopropoxy-1H-pyrazol-3-yl)-9H-purin-2-amine] | 3 nM | – |
| CC(C)Oc1cc(-n2cnc3cnc(N[C@@H](C)c4ncc(F)cn4)nc32)n[nH]1 [Example 12, N-[(1S)-1-(5-Fluoropyrimidin-2-yl)ethyl]-9-(5-isopropoxy-1H-pyrazol-3-yl)-9H-purin-2-amine] | 3 nM | – |
| CC[C@H](Nc1ccc2ncn(-c3cc(OC(C)C)[nH]n3)c2n1)c1ccc(F)cn1 [Example 13, N-[(1S)-1-(5-Fluoropyridin-2-yl)propyl]-3-(5-isopropoxy-1H-pyrazol-3-yl)-3H-imidazo[4,5-b]pyridin-5-amine] | 6 nM | – |
| CC(C)Oc1cc(-n2cnc3cc(Cl)c(N[C@@H](C)c4ccc(F)cn4)nc32)n[nH]1 [Example 14, 6-Chloro-N-[(1S)-1-(5-fluoropyridin-2-yl)ethyl]-3-(5-isopropoxy-1H-pyrazol-3-yl)-3H-imidazo[4,5-b]pyridin-5-amine] | 4 nM | – |
| Cc1cc(-n2cnc3cc(F)c(N[C@@H](C)c4ncc(F)cn4)nc32)n[nH]1 [Example 15, 6-Fluoro-N-[(1S)-1-(5-fluoropyrimidin-2-yl)ethyl]-3-(5-methyl-1H-pyrazol-3-yl)-3H-imidazo[4,5-b]pyridin-5-amine] | 3810 nM | – |
| Cc1cc(-n2cnc3ccc(N[C@@H](C)c4ncc(F)cn4)nc32)n[nH]1 [Example 16, N-[(1S)-1-(5-Fluoropyrimidin-2-yl)ethyl]-3-(5-methyl-1H-pyrazol-3-yl)-3H-imidazo[4,5-b]pyridin-5-amine] | 61 nM | – |
| Cc1cc(-n2cnc3ccc(N[C@@H](C)c4ccc(F)cn4)nc32)n[nH]1 [Example 17, N-[(1S)-1-(5-Fluoropyridin-2-yl)ethyl]-3-(5-methyl-1H-pyrazol-3-yl)-3H-imidazo[4,5-b]pyridin-5-amine] | 14 nM | 3 nM |
| Cc1cc(-n2cnc3cnc(N[C@@H](C)c4ccc(F)cn4)nc32)n[nH]1 [Example 18, N-[(1S)-1-(5-Fluoropyridin-2-yl)ethyl]-9-(5-methyl-1H-pyrazol-3-yl)-9H-purin-2-amine] | 311 nM | – |
| Cc1cc(-n2cnc3c(C(=O)N4CCOCC4)nc(N[C@@H](C)c4ncc(F)cn4)nc32)n[nH]1 [Example 19, N-[(1S)-1-(5-Fluoropyrimidin-2-yl)ethyl]-9-(5-methyl-1H-pyrazol-3-yl)-6-(morpholin-4-ylcarbonyl)-9H-purin-2-amine] | 7250 nM | – |
| Cc1cc(-n2cnc3c(NC4CCOCC4)nc(N[C@@H](C)c4ccc(F)cn4)nc32)n[nH]1 [Example 20, N^2-[(1S)-1-(5-Fluoropyridin-2-yl)ethyl]-9-(5-methyl-1H-pyrazol-3-yl)-N^6-(tetrahydro-2H-pyran-4-yl)-9H-purine-2,6-diamine] | 475 nM | – |
| COc1nc(N[C@@H](C)c2ccc(F)cn2)nc2c1ncn2-c1cc(C)[nH]n1 [Example 21, N-[(1S)-1-(5-Fluoropyridin-2-yl)ethyl]-6-methoxy-9-(5-methyl-1H-pyrazol-3-yl)-9H-purin-2-amine] | 96 nM | – |
| Cc1cc(-n2cnc3c(N4CCOCC4)nc(N[C@@H](C)c4ccc(F)cn4)nc32)n[nH]1 [Example 22, N-[(1S)-1-(5-Fluoropyridin-2-yl)ethyl]-9-(5-methyl-1H-pyrazol-3-yl)-6-morpholin-4-yl-9H-purin-2-amine] | 773 nM | – |
| CCOc1cc(-n2cnc3ccc(N[C@@H](CC)c4ccc(F)cn4)nc32)n[nH]1 [Example 23, 3-(5-Ethoxy-1H-pyrazol-3-yl)-N-[(1S)-1-(5-fluoropyridin-2-yl)propyl]-3H-imidazo[4,5-b]pyridin-5-amine] | 3 nM | – |
